The experiment is described as follows: biological activity of the synthetic peptide compared with the biogenic material isolated from urine (test not described; anorexigenic properties stated). The following applies: no method or figures given.

Non-standard residues stand in square brackets, D forms with d. Residues, ends and D or L forms follow the SMILES beside them. pGlu = O=C1CC[C@@H](C(=O)O)N1

With `O=C(O)CNC(=O)[C@H](Cc1cnc[nH]1)NC(=O)[C@@H]1CCC(=O)N1` [synthetic peptide, L-(pyro)glutamyl-L-histidyl-glycine] ([pGlu]-His-Gly-OH), the biological activity entry is on record as “comparable biological activity”.
